Reference: patent US20230357139A1, “SMALL MOLECULE INHIBITORS OF BACTERIAL TOXINS” (Artizan Biosciences, Inc., priority 2020, published 2023)
Where two headings read alike, the source gives them in different places.

Columns and labels:
BFT = assay: E-cadherin release assay (BFT-induced E-cadherin release from HT29 cells); type: cell-based, B. fragilis; conditions: 18 hours, E-cadherin in supernatant by ELISA, read-out: HT29 Cell IC50
Procedure: Test compounds were also screened for their ability to inhibit BFT-induced E-cadherin release from HT29 cells.
Different concentrations of test compounds were pre-incubated with rBFT for one hour at 37° C. The rBFT-compound mixture was then added to HT29 cells and incubated at 37° C. for 18 hours. Following incubation, cell supernatants were harvested and E-cadherin was quantified in the supernatants by ELISA (FIG. 2).

collagenase H (ColH) = collagenase H (ColH) (Hathewaya histolytica, UniProt Q46085); assay: biochemical; set-up: species or system Clostridium histolyticum
recombinant BFT (rBFT) = assay: NFF-3 cleavage assay; type: biochemical, B. fragilis; conditions: rBFT pre-incubated with compound 30 minutes at 37° C., then NFF-3 for 24 hours; read-out: NFF3 IC50
Procedure: A NFF-3 cleavage assay was used to test activity of recombinant BFT, before or after addition of various inhibitors. The NFF-3 cleavage assay was previously described by Goulas et al., PNAS, 2011, 108(5) 1856-1861, which is incorporated by reference herein in its entirety.
Initially, recombinant BFT (rBFT) (0.25, 0.5, 1, 2, 4, 8, or 16 μg/mL) was incubated at 37° C. with the fluorogenic substrate NFF-3 (Cayman Chemical) at a concentration of 2.5 μM, 5 μM, or 10 μM. After 18 hours, fluorescence was measured in a microplate fluorimeter.
Next, rBFT was pre-incubated with one or more test compounds at different concentrations for 30 minutes at 37° C. The rBFT-compound mixture was then added to NFF-3 and incubated for 24 hours at 37° C. Fluorescence was then measured in a microplate fluorimeter.

ETBF = assay: ETBF-mediated disease model in mono-colonized germ-free mice; type: in vivo; conditions: for lipocalin2 levels: 15-50 mg/kg p.o., QD
Procedure: Test compounds were also screened in vivo. Germ-free (GF) mice were mono-colonized with ETBF on day 0. […] Markers of injury and inflammation (e.g., cecal weight and fecal lipocalin 2) were analyzed on day 4 (FIG. 6A). Sample size was 5-6 mice per group.

Gelatinase E (GelE) = Gelatinase E (GelE) (Enterococcus faecalis (strain ATCC 700802 / V583), UniProt Q833V7); assay: Gelatinase E activity assay (FRET peptide substrate); type: biochemical; conditions: Table 11
Procedure: Gelatinase E (Gel E) was purified from bacterial culture supernatant from E. faecalis. E. faecalis was cultured aerobically in Todd Hewitt Broth overnight at 37° C. Nucleic acid was precipitated with 0.9% protamine solution, followed by protein precipitation with ammonium sulfate. Resuspended protein pellet was further subjected to purification using FPLC (phenyl Sepharose column). Fractions with gelatinase activity as determined by casein agar assay were pooled and further concentrated.
Different concentrations of test compound were incubated with purified GelE and FRET-based peptide substrate (390 MMP FRET Substrate 1; Anaspec AS-27077) in assay buffer at room temperature for 30 minutes. The fluorescence signal was determined by a plate reader.

[1] = ETBF-colonized mice, 50 mg/kg oral BID days 1-3, analyzed day 4

Sequence of Gelatinase E (GelE) (Q833V7 193-510 limits assumed): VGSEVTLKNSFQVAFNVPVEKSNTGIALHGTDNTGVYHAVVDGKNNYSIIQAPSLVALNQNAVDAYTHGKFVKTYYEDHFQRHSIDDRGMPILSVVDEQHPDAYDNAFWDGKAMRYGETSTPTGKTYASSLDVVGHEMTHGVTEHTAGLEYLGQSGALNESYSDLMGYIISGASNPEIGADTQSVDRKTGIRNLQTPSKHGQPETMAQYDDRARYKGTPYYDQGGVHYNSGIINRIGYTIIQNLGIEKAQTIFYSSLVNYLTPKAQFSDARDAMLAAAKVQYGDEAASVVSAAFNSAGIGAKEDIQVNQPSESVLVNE
Sequence of collagenase H (ColH) (Q46085 41-1021 limits assumed): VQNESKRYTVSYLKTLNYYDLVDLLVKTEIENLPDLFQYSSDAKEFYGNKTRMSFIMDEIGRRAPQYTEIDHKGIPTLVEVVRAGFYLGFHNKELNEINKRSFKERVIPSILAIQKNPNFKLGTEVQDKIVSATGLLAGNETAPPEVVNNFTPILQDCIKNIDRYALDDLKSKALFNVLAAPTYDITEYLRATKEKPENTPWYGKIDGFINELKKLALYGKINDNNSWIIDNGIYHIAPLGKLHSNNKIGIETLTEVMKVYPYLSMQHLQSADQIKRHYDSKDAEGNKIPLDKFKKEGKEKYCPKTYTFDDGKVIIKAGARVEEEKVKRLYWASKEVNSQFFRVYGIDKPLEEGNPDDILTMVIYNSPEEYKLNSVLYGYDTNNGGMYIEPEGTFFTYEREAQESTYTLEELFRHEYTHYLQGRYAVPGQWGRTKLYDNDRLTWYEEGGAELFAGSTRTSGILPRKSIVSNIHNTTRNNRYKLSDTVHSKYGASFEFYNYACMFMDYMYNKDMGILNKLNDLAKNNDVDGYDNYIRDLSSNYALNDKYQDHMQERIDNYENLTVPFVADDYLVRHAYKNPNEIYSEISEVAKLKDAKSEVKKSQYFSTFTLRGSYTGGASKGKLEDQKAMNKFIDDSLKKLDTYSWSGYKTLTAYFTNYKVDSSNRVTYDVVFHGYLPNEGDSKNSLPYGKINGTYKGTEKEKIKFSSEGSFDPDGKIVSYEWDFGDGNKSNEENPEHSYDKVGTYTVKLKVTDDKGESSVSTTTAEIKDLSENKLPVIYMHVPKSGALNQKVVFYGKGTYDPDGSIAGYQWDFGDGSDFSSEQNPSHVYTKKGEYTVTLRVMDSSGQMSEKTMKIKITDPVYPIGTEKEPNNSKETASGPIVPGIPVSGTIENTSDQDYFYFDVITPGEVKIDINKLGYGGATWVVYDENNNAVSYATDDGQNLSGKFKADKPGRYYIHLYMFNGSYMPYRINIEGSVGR

Work on `CC(C)C[C@H](C(=O)NO)N(Cc1ccc(F)cc1)S(=O)(=O)c1ccc(O)cc1` [Example 26] yielded an IC50 (BFT) of 1280 nM and an IC50 (collagenase H (ColH)) of 19300 nM.
Work on `CC(C)C[C@H](C(=O)NO)N(Cc1ccc2[nH]ccc2c1)S(=O)(=O)c1ccc(O)cc1` [Example 33] yielded an IC50 (recombinant BFT (rBFT)) of 140 nM, an IC50 (BFT) of 1740 nM and an IC50 (collagenase H (ColH)) of 384 nM.
With `CCC[C@H](C(=O)NO)N(Cc1cccnc1)S(=O)(=O)c1ccc(O)cc1` [Example 42] the IC50 (recombinant BFT (rBFT)) was 90 nM, the lipocalin2 levels (ETBF) was “significantly reduce” and the IC50 (collagenase H (ColH)) was 8780 nM.
`CC[C@H](C(=O)NO)N(CCc1cccnc1)S(=O)(=O)c1ccc(O)cc1` [Example 60, (R)—N-hydroxy-2-((4-hydroxy-N-(2-(pyridin-3-yl)ethyl)phenyl)sulfonamido)butanamide] was tested, and the IC50 (recombinant BFT (rBFT)) was 18.8 nM, the lipocalin2 levels (ETBF) was “significantly reduce” and the IC50 (collagenase H (ColH)) was 3820 nM.
Compound `COc1ccc(S(=O)(=O)N(CC(=O)O)Cc2cccnc2)cc1` [I] has an IC50 (Gelatinase E (GelE)) greater than 100000 nM and an IC50 (collagenase H (ColH); read-out: ColH IC50) greater than 100000 nM.
With `CNC(=O)COc1ccc(S(=O)(=O)N(CC(=O)NO)CC(C)C)cc1` [K] the IC50 (Gelatinase E (GelE)) was 512 nM and the IC50 (collagenase H (ColH)) was greater than 100000 nM.
Work on `COc1ccc(S(=O)(=O)N(CC(=O)NO)CC(C)C)cn1` [L] yielded an IC50 (Gelatinase E (GelE)) of 336 nM and an IC50 (collagenase H (ColH); read-out: ColH IC50) greater than 100000 nM.
`CSc1ccc(S(=O)(=O)N(CC(=O)NO)CC(C)C)cc1` [M] was tested, and the IC50 (Gelatinase E (GelE)) was 257 nM and the IC50 (collagenase H (ColH); read-out: ColH IC50) was greater than 100000 nM.
For `CC(C)[C@H](C(=O)NO)N(Cc1cccnc1)S(=O)(=O)c1ccc(O)cc1` [OH-CGS-23270A, 2(R)-[4-Hydroxy-N-(3-pyridylmethyl)phenylsulfonamido]-3-methylbutyrohydroxamic acid, reference compound], the “cecal weight compared to vehicle control” value (ETBF; [1]) was “significantly increased” and the “fecal lipocalin2 compared to vehicle control” value (ETBF; [1]) was “significantly decreased”.
`COc1ccc(S(=O)(=O)N(CC(=O)NO)CC(F)F)cc1` [P] gave an IC50 (Gelatinase E (GelE)) of 9090 nM and an IC50 (collagenase H (ColH); read-out: ColH IC50) greater than 100000 nM.
